According to PMC2248166, “Quantitative peptide binding motifs for 19 human and mouse MHC class I molecules derived using positional scanning combinatorial peptide libraries” (Immunome Research, 2008):
Where a SMILES comes first, the peptide text is derived from it.

The molecules below were run against HLA A*3001 (Homo sapiens, UniProt P04439, D140H/D185E/E176W/F33S/G80R/H175R/K168Q/R138E/R41S) (assay: biochemical).
Type: binding

Sequence of HLA A*3001 (P04439 25-365 limits assumed, stated change not applied): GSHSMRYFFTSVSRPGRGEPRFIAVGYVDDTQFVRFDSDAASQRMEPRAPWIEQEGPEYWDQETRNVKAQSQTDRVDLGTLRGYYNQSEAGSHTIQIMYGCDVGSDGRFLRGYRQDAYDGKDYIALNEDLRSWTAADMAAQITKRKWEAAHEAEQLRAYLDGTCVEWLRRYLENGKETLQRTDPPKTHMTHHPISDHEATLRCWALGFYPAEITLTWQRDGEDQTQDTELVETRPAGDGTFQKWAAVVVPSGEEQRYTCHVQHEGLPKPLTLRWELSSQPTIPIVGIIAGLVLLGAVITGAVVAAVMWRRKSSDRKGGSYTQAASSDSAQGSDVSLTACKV

| Compound | IC50 |
| --- | --- |
| C[C@@H](O)[C@H](N)C(=O)N[C@@H](Cc1ccccc1)C(=O)N[C@@H](CCCNC(=N)N)C(=O)N[C@@H](CCC(=O)O)C(=O)N[C@@H](CCCNC(=N)N)C(=O)N[C@@H](Cc1ccc(O)cc1)C(=O)N[C@@H](CO)C(=O)N[C@@H](Cc1ccc(O)cc1)C(=O)N[C@@H](CCCCN)C(=O)O [3102.0221] (H-TFRERYSYK-OH) | 0.89 nM |
| CC[C@H](C)[C@H](NC(=O)[C@@H](N)CCCCN)C(=O)N[C@@H](CCCCN)C(=O)N[C@@H](CO)C(=O)N1CCC[C@H]1C(=O)N[C@H](C(=O)N[C@@H](Cc1ccc(O)cc1)C(=O)N[C@@H](Cc1ccc(O)cc1)C(=O)N[C@@H](CCCCN)C(=O)O)[C@@H](C)CC [3102.0014] (H-KIKSPIYYK-OH) | 0.93 nM |
| CC(C)C[C@H](N)C(=O)N[C@@H](C)C(=O)N[C@@H](CCCNC(=N)N)C(=O)N[C@@H](CCCNC(=N)N)C(=O)N1CCC[C@H]1C(=O)N[C@H](C(=O)N1CCC[C@H]1C(=O)N[C@@H](CCCCN)C(=O)N[C@@H](CCCCN)C(=O)O)[C@@H](C)O [3102.0275] (H-LARRPTPKK-OH) | 10 nM |
| CSCC[C@H](N)C(=O)N[C@@H](CC(C)C)C(=O)N[C@@H](CCCNC(=N)N)C(=O)N[C@H](C(=O)N[C@H](C(=O)N[C@@H](Cc1ccc(O)cc1)C(=O)N[C@@H](CS)C(=O)N[C@@H](CC(N)=O)C(=O)N[C@@H](CCCCN)C(=O)O)C(C)C)[C@@H](C)O [3102.0024] (H-MLRTVYCNK-OH) | 0.26 nM |
| CC(C)[C@H](NC(=O)[C@H](Cc1c[nH]cn1)NC(=O)[C@@H](NC(=O)[C@H](CC(=O)O)NC(=O)[C@H](CCCCN)NC(=O)[C@H](CO)NC(=O)[C@@H](N)CCCNC(=N)N)[C@@H](C)O)C(=O)N[C@@H](Cc1ccccc1)C(=O)N[C@@H](C)C(=O)O [3102.0271] (H-RSKDTHVFA-OH) | 0.019 nM |
| CC[C@H](C)[C@H](NC(=O)[C@H](Cc1ccccc1)NC(=O)[C@@H]1CCCN1C(=O)[C@H](C)NC(=O)[C@H](CS)NC(=O)[C@H](Cc1c[nH]c2ccccc12)NC(=O)[C@H](CCCCN)NC(=O)[C@@H](NC(=O)[C@@H](N)CCSC)[C@@H](C)O)C(=O)O [3102.0130] (H-MTKWCAPFI-OH) | 0.17 nM |
| CC(C)C[C@H](NC(=O)[C@H](CCCCN)NC(=O)[C@H](Cc1ccccc1)NC(=O)[C@@H](N)CCCCN)C(=O)N[C@H](C(=O)N[C@@H](CC(C)C)C(=O)N1CCC[C@H]1C(=O)N[C@@H](CC(N)=O)C(=O)N[C@@H](CCCCN)C(=O)O)[C@@H](C)O [3102.0261] (H-KFKLTLPNK-OH) | 12 nM |

What follows are molecules tested against HLA B*1503 (Homo sapiens, UniProt P01889, A329T/A93T/A95T/C349S/D201E/D98Y/E187L/E204Q/K202T/N87E/Q94N/R155S/R180L/S121R/S35A/V306I/V36M/Y140S/Y91S) (assay: biochemical).
Type: binding

| Compound | IC50 |
| --- | --- |
| CC(C)C[C@H](NC(=O)[C@H](Cc1c[nH]c2ccccc12)NC(=O)[C@H](CCCCN)NC(=O)[C@H](C)NC(=O)[C@H](CCCCN)NC(=O)[C@@H](N)Cc1ccccc1)C(=O)N[C@H](C(=O)N1CCC[C@H]1C(=O)N[C@@H](Cc1ccccc1)C(=O)O)[C@@H](C)O [3102.1174] (H-FKAKWLTPF-OH) | 0.073 nM |
| C[C@@H](O)[C@H](N)C(=O)N[C@@H](CCCCN)C(=O)N[C@@H](Cc1ccccc1)C(=O)N[C@H](C(=O)N[C@@H](CC(=O)O)C(=O)N[C@@H](Cc1ccccc1)C(=O)N[C@@H](CCC(N)=O)C(=O)N[C@@H](CC(=O)O)C(=O)N[C@@H](Cc1ccccc1)C(=O)O)[C@@H](C)O [3102.1078] (H-TKFTDFQDF-OH) | 2.2 nM |
| CC[C@H](C)[C@H](NC(=O)[C@H](CC(N)=O)NC(=O)[C@@H](NC(=O)[C@H](Cc1ccccc1)NC(=O)[C@H](CO)NC(=O)[C@@H](NC(=O)[C@H](CO)NC(=O)[C@@H](N)Cc1c[nH]c2ccccc12)[C@@H](C)O)[C@@H](C)O)C(=O)N[C@@H](Cc1ccccc1)C(=O)O [3102.1342] (H-WSTSFTNIF-OH) | 5.9 nM |
| CC[C@H](C)[C@H](NC(=O)[C@H](CC(N)=O)NC(=O)[C@H](CC(N)=O)NC(=O)[C@H](Cc1ccccc1)NC(=O)[C@@H]1CCCN1C(=O)[C@H](CCCCN)NC(=O)[C@H](CCCNC(=N)N)NC(=O)[C@H](CCC(N)=O)NC(=O)[C@@H](N)Cc1ccccc1)C(=O)O [3102.1079] (H-FQRKPFNNI-OH) | 8.9 nM |
| CC[C@H](C)[C@H](N)C(=O)N[C@@H](CC(C)C)C(=O)N[C@@H](Cc1c[nH]cn1)C(=O)N[C@H](C(=O)N[C@@H](CC(=O)O)C(=O)N[C@H](C(=O)N[C@@H](CC(C)C)C(=O)N[C@@H](CO)C(=O)N[C@@H](Cc1ccccc1)C(=O)O)[C@@H](C)CC)C(C)C [3102.1261] (H-ILHVDILSF-OH) | 24 nM |
| CC[C@H](C)[C@H](N)C(=O)N[C@@H](CO)C(=O)N[C@@H](CO)C(=O)N[C@@H](CCCNC(=N)N)C(=O)N[C@@H](CCC(=O)O)C(=O)N[C@@H](CO)C(=O)N[C@H](C(=O)N[C@@H](CO)C(=O)N[C@@H](Cc1ccccc1)C(=O)O)C(C)C [3102.1068] (H-ISSRESVSF-OH) | 12 nM |
| CC(C)[C@H](NC(=O)[C@H](CC(N)=O)NC(=O)[C@@H](N)CO)C(=O)N[C@H](C(=O)N[C@@H](CS)C(=O)NCC(=O)N[C@H](C(=O)N[C@H](C(=O)N[C@@H](Cc1ccccc1)C(=O)O)[C@@H](C)O)[C@@H](C)O)C(C)C [3102.1319] (H-SNVVCGTTF-OH) | 25 nM |
| CC(C)[C@H](N)C(=O)N[C@@H](CCC(=O)O)C(=O)N[C@H](C(=O)N[C@@H](CCC(=O)O)C(=O)N1CCC[C@H]1C(=O)NCC(=O)N[C@@H](CO)C(=O)N[C@@H](CO)C(=O)N[C@@H](Cc1ccccc1)C(=O)O)C(C)C [3102.1119] (H-VEVEPGSSF-OH) | 1.7 nM |
| CC(C)C[C@H](NC(=O)[C@H](CO)NC(=O)[C@H](CS)NC(=O)[C@@H](NC(=O)[C@H](Cc1ccccc1)NC(=O)[C@H](CCC(N)=O)NC(=O)[C@@H](N)CO)[C@@H](C)O)C(=O)N[C@@H](C)C(=O)N[C@H](C(=O)O)C(C)C [3102.1117] (H-SQFTCSLAV-OH) | 1.5 nM |
| CC(C)C[C@H](NC(=O)[C@H](Cc1ccccc1)NC(=O)[C@H](CO)NC(=O)[C@@H](N)CC(C)C)C(=O)N[C@@H](CO)C(=O)N[C@@H](CCCNC(=N)N)C(=O)N[C@H](C(=O)N[C@@H](Cc1ccccc1)C(=O)N[C@@H](Cc1ccccc1)C(=O)O)C(C)C [3102.1115] (H-LSFLSRVFF-OH) | 0.33 nM |
| CC[C@H](C)[C@H](NC(=O)[C@@H](NC(=O)[C@@H](NC(=O)[C@H](CCCNC(=N)N)NC(=O)[C@H](CC(N)=O)NC(=O)[C@H](Cc1ccccc1)NC(=O)[C@H](CO)NC(=O)[C@@H](N)C(C)C)C(C)C)C(C)C)C(=O)N[C@@H](Cc1ccccc1)C(=O)O [3102.1059] (H-VSFNRVVIF-OH) | 1.1 nM |
| C[C@@H](O)[C@H](NC(=O)[C@H](CO)NC(=O)CNC(=O)[C@H](CCCNC(=N)N)NC(=O)[C@H](CC(N)=O)NC(=O)CNC(=O)[C@@H](N)CO)C(=O)N[C@@H](CO)C(=O)N[C@@H](Cc1ccccc1)C(=O)O [3102.1101] (H-SGNRGSTSF-OH) | 25 nM |
| CC[C@H](C)[C@H](NC(=O)[C@@H](NC(=O)[C@H](CC(N)=O)NC(=O)[C@H](CCC(=O)O)NC(=O)[C@@H]1CCCN1C(=O)[C@H](CO)NC(=O)[C@H](C)NC(=O)[C@H](CCSC)NC(=O)[C@@H](N)Cc1ccccc1)C(C)C)C(=O)O [3102.1095] (H-FMASPENVI-OH) | 6.4 nM |
| CC[C@H](C)[C@H](NC(=O)[C@H](CO)NC(=O)[C@H](CO)NC(=O)[C@H](CCC(=O)O)NC(=O)[C@H](CC(N)=O)NC(=O)[C@H](Cc1ccccc1)NC(=O)[C@@H](NC(=O)[C@H](CCC(N)=O)NC(=O)[C@@H](N)Cc1ccccc1)C(C)C)C(=O)O [3102.1082] (H-FQVFNESSI-OH) | 5 nM |
| CC[C@H](C)[C@H](N)C(=O)N[C@@H](CO)C(=O)N[C@H](C(=O)N[C@@H](Cc1ccc(O)cc1)C(=O)N1CCC[C@H]1C(=O)NCC(=O)N[C@@H](CC(N)=O)C(=O)N[C@H](C(=O)N[C@@H](Cc1ccccc1)C(=O)O)[C@@H](C)O)[C@@H](C)O [3102.1229] (H-ISTYPGNTF-OH) | 0.48 nM |
| CC(C)[C@H](NC(=O)[C@H](CCCCN)NC(=O)[C@@H](N)CCCCN)C(=O)N[C@@H](Cc1ccc(O)cc1)C(=O)N[C@H](C(=O)N[C@@H](Cc1ccccc1)C(=O)N[C@@H](Cc1ccccc1)C(=O)N[C@@H](CCCCN)C(=O)N[C@@H](Cc1ccccc1)C(=O)O)[C@@H](C)O [3102.1257] (H-KKVYTFFKF-OH) | 3.6 nM |
| CC(C)C[C@H](NC(=O)[C@H](CC(N)=O)NC(=O)[C@H](CC(C)C)NC(=O)[C@H](CCCNC(=N)N)NC(=O)[C@H](CCCNC(=N)N)NC(=O)[C@H](CO)NC(=O)[C@H](CCCCN)NC(=O)[C@@H](N)CO)C(=O)N[C@@H](Cc1ccccc1)C(=O)O [3102.1061] (H-SKSRRLNLF-OH) | 2.4 nM |
| CSCC[C@H](NC(=O)[C@H](CO)NC(=O)[C@H](Cc1ccccc1)NC(=O)[C@H](CC(N)=O)NC(=O)[C@@H](NC(=O)[C@H](CCSC)NC(=O)[C@@H](N)Cc1ccccc1)[C@@H](C)O)C(=O)N[C@H](C(=O)N[C@@H](Cc1ccc(O)cc1)C(=O)O)C(C)C [3102.1186] (H-FMTNFSMVY-OH) | 2.3 nM |
| CC(C)[C@H](NC(=O)[C@H](CCC(N)=O)NC(=O)[C@H](CO)NC(=O)[C@@H](NC(=O)[C@H](CO)NC(=O)[C@@H](NC(=O)[C@H](CCC(N)=O)NC(=O)[C@@H](N)Cc1ccc(O)cc1)[C@@H](C)O)C(C)C)C(=O)N[C@@H](C)C(=O)O [3102.1307] (H-YQTSVSQVA-OH) | 1.5 nM |
| CC[C@H](C)[C@H](NC(=O)[C@H](CS)NC(=O)[C@@H](NC(=O)[C@H](CC(N)=O)NC(=O)[C@@H]1CCCN1C(=O)[C@H](Cc1ccc(O)cc1)NC(=O)[C@H](CC(C)C)NC(=O)[C@@H](N)CO)C(C)C)C(=O)N[C@@H](Cc1ccccc1)C(=O)O [3102.1246] (H-SLYPNVCIF-OH) | 4.9 nM |
| CC[C@H](C)[C@H](NC(=O)[C@H](CO)NC(=O)[C@@H](NC(=O)[C@H](C)NC(=O)[C@H](CC(C)C)NC(=O)[C@H](CC(N)=O)NC(=O)[C@H](CCCCN)NC(=O)[C@@H](N)Cc1ccccc1)[C@@H](C)O)C(=O)N[C@@H](Cc1ccc(O)cc1)C(=O)O [3102.1297] (H-FKNLATSIY-OH) | 1.6 nM |
| CC[C@H](C)[C@H](N)C(=O)N[C@@H](CCSC)C(=O)N[C@H](C(=O)N[C@@H](CO)C(=O)N[C@@H](CCC(=O)O)C(=O)N[C@@H](Cc1c[nH]cn1)C(=O)N[C@@H](Cc1ccccc1)C(=O)N[C@@H](CO)C(=O)N[C@@H](CC(C)C)C(=O)O)C(C)C [3102.1318] (H-IMVSEHFSL-OH) | 5.5 nM |
